Results taken from PubChem BioAssay (NCI).
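96-well plates; 48 h exposure; 5 concentrations. Endpoints by linear interpolation between flanking doses. Not reached: highest tested concentration assigned. Abbreviation: GI50, concentration required for 50% inhibition of growth. Definition used: TGI = concentration required for complete inhibition of growth.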

What was measured:
Experiment in all cases: inhibition of tumour cell growth, NCI panel, 48 h
[1] = tested on: K-562 leukemia
[2] = tested on: MOLT-4 leukemia
[3] = tested on: IGROV1 ovarian
[4] = tested on: BT-549 breast
[5] = tested on: NCI-H23 lung
[6] = tested on: ACHN renal
[7] = tested on: T-47D breast
[8] = tested on: KM12 colon
[9] = tested on: NCI/ADR-RES ovarian
[10] = tested on: HCC-2998 colon
[11] = tested on: A549 NSCLC
[12] = tested on: MDA-MB-435
[13] = tested on: LOX IMVI melanoma
[14] = tested on: NCI-H226 lung
[15] = tested on: SK-MEL-28 melanoma
[16] = tested on: CAKI-1 renal
[17] = tested on: OVCAR-5 ovarian
[18] = tested on: SR leukemia
[19] = tested on: UACC-62 melanoma
[20] = tested on: HOP-92 NSCLC
[21] = tested on: SK-MEL-5 melanoma
[22] = tested on: HCT-15 colon
[23] = tested on: NCI-H522 lung
[24] = tested on: OVCAR-3 ovarian
[25] = tested on: HT29 colon
[26] = tested on: UACC-257 melanoma
[27] = tested on: SK-MEL-2 melanoma
[28] = tested on: OVCAR-8 ovarian
[29] = tested on: SW-620 colon
[30] = tested on: HS 578T breast
[31] = tested on: MALME-3M melanoma
[32] = tested on: NCI-H460 lung
[33] = tested on: HOP-62 NSCLC
[34] = tested on: DU-145 prostate
[35] = tested on: A498 renal
[36] = tested on: M14 melanoma
[37] = tested on: SNB-19 CNS
[38] = tested on: TK-10 renal
[39] = tested on: U251 CNS
[40] = tested on: PC-3 prostate
[41] = tested on: SF-268 CNS
[42] = tested on: OVCAR-4 ovarian
[43] = tested on: MDA-MB-231 breast
[44] = tested on: SF-295 CNS
[45] = tested on: UO-31 renal
[46] = tested on: EKVX NSCLC
[47] = tested on: RXF 393 renal
[48] = tested on: SF-539 CNS
[49] = tested on: HCT-116 colon
[50] = tested on: SNB-75 CNS
[51] = tested on: SN12C renal
[52] = tested on: RPMI-8226 leukemia
[53] = tested on: COLO 205 colon
[54] = tested on: CCRF-CEM leukemia
[55] = tested on: MCF7 breast
[56] = tested on: SK-OV-3 ovarian
[57] = tested on: HL-60(TB) leukemia
[58] = tested on: 786-0 renal

O=[N+]([O-])c1ccc(Nc2nc3ccccc3s2)cc1
TGI [1]: 35 µM | TGI [2]: 30.3 µM | TGI [3]: 21.2 µM | TGI [4]: 81.4 µM | TGI [5]: 34.5 µM | TGI [6]: > 100 µM | TGI [7]: 14 µM | TGI [8]: > 100 µM | TGI [9]: > 100 µM | TGI [10]: 84 µM | TGI [11]: > 100 µM | TGI [12]: > 100 µM | TGI [13]: 38.9 µM | TGI [14]: > 100 µM | TGI [15]: > 100 µM | TGI [16]: > 100 µM | TGI [17]: 84.6 µM | TGI [18]: 34.5 µM | TGI [19]: 58.7 µM | TGI [20]: 60.9 µM | TGI [21]: 56.7 µM | TGI [22]: > 100 µM | TGI [23]: 35.9 µM | TGI [24]: 57.7 µM | TGI [25]: > 100 µM | TGI [26]: 75.6 µM | TGI [27]: 81 µM | TGI [28]: > 100 µM | TGI [29]: > 100 µM | TGI [30]: > 100 µM | TGI [31]: 46.1 µM | TGI [32]: > 100 µM | TGI [33]: > 100 µM | TGI [34]: > 100 µM | TGI [35]: 92 µM | TGI [36]: > 100 µM | TGI [37]: > 100 µM | TGI [38]: 88 µM | TGI [39]: 39.3 µM | TGI [40]: 35.1 µM | TGI [41]: 91.7 µM | TGI [42]: > 100 µM | TGI [43]: 40.2 µM | TGI [44]: > 100 µM | TGI [45]: 66.5 µM | TGI [46]: 40.4 µM | TGI [47]: 28.9 µM

CC1=C(C(=O)NCCc2ccccc2)CC(C(=O)NCCc2ccccc2)=C(C)N1
TGI [48]: > 100 µM | TGI [1]: > 100 µM | TGI [2]: > 100 µM | TGI [3]: > 100 µM | TGI [49]: > 100 µM | TGI [4]: > 100 µM | TGI [5]: > 100 µM | TGI [50]: 69.2 µM | TGI [6]: > 100 µM | TGI [7]: > 100 µM | TGI [8]: > 100 µM | TGI [51]: > 100 µM | TGI [9]: > 100 µM | TGI [10]: > 100 µM | TGI [11]: > 100 µM | TGI [12]: > 100 µM | TGI [52]: > 100 µM | TGI [13]: > 100 µM | TGI [14]: > 100 µM | TGI [16]: > 100 µM | TGI [17]: > 100 µM | TGI [19]: > 100 µM | TGI [53]: > 100 µM | TGI [20]: > 100 µM | TGI [22]: > 100 µM | TGI [23]: > 100 µM | TGI [24]: > 100 µM | TGI [25]: > 100 µM | TGI [26]: > 100 µM | TGI [27]: > 100 µM | TGI [28]: > 100 µM | TGI [29]: > 100 µM | TGI [54]: 76.5 µM | TGI [55]: > 100 µM | TGI [30]: > 100 µM | TGI [56]: > 100 µM | TGI [57]: > 100 µM | TGI [32]: > 100 µM | TGI [33]: > 100 µM | TGI [34]: > 100 µM | TGI [35]: > 100 µM | TGI [36]: > 100 µM | TGI [37]: 72.5 µM | TGI [38]: > 100 µM | TGI [39]: > 100 µM | TGI [40]: > 100 µM | TGI [41]: > 100 µM | TGI [42]: > 100 µM | TGI [43]: > 100 µM | TGI [44]: > 100 µM | TGI [45]: > 100 µM | TGI [58]: > 100 µM | TGI [46]: > 100 µM | TGI [47]: > 100 µM

O=C(Nc1cc[c]([Sb](=[O])([OH])[OH])cc1)c1ccccc1
GI50 [1]: > 100 µM | TGI [1]: > 100 µM | GI50 [2]: > 100 µM | TGI [2]: > 100 µM | GI50 [3]: > 100 µM | TGI [3]: > 100 µM | GI50 [49]: > 100 µM | TGI [49]: > 100 µM | GI50 [4]: > 100 µM | TGI [4]: > 100 µM | GI50 [5]: > 100 µM | TGI [5]: > 100 µM | GI50 [50]: > 100 µM | TGI [50]: > 100 µM | GI50 [6]: > 100 µM | TGI [6]: > 100 µM | GI50 [7]: > 100 µM | TGI [7]: > 100 µM | GI50 [8]: > 100 µM | TGI [8]: > 100 µM | GI50 [51]: > 100 µM | TGI [51]: > 100 µM | GI50 [9]: > 100 µM | TGI [9]: > 100 µM | GI50 [11]: > 100 µM | TGI [11]: > 100 µM | GI50 [12]: > 100 µM | TGI [12]: > 100 µM | GI50 [13]: > 100 µM | TGI [13]: > 100 µM | GI50 [14]: > 100 µM | TGI [14]: > 100 µM | GI50 [15]: > 100 µM | TGI [15]: > 100 µM | GI50 [16]: > 100 µM | TGI [16]: > 100 µM | GI50 [17]: > 100 µM | TGI [17]: > 100 µM | GI50 [18]: > 100 µM | TGI [18]: > 100 µM | GI50 [19]: > 100 µM | TGI [19]: > 100 µM | GI50 [20]: > 100 µM | TGI [20]: > 100 µM | GI50 [21]: > 100 µM | TGI [21]: > 100 µM | GI50 [22]: > 100 µM | TGI [22]: > 100 µM | GI50 [23]: > 100 µM | TGI [23]: > 100 µM | GI50 [24]: > 100 µM | TGI [24]: > 100 µM | GI50 [25]: > 100 µM | TGI [25]: > 100 µM | GI50 [27]: > 100 µM | TGI [27]: > 100 µM | GI50 [28]: > 100 µM | TGI [28]: > 100 µM | GI50 [29]: > 100 µM | TGI [29]: > 100 µM | GI50 [54]: > 100 µM | TGI [54]: > 100 µM | GI50 [30]: > 100 µM | TGI [30]: > 100 µM | GI50 [31]: > 100 µM | TGI [31]: > 100 µM | GI50 [32]: > 100 µM | TGI [32]: > 100 µM | GI50 [33]: > 100 µM | TGI [33]: > 100 µM | GI50 [34]: > 100 µM | TGI [34]: > 100 µM | GI50 [35]: > 100 µM | TGI [35]: > 100 µM | GI50 [36]: > 100 µM | TGI [36]: > 100 µM | GI50 [37]: > 100 µM | TGI [37]: > 100 µM | GI50 [38]: > 100 µM | TGI [38]: > 100 µM | GI50 [39]: > 100 µM | TGI [39]: > 100 µM | GI50 [40]: > 100 µM | TGI [40]: > 100 µM | GI50 [41]: > 100 µM | TGI [41]: > 100 µM | GI50 [42]: > 100 µM | TGI [42]: > 100 µM | GI50 [43]: > 100 µM | TGI [43]: > 100 µM | GI50 [44]: > 100 µM | TGI [44]: > 100 µM | GI50 [45]: > 100 µM | TGI [45]: > 100 µM | GI50 [58]: > 100 µM | TGI [58]: > 100 µM | GI50 [46]: > 100 µM | TGI [46]: > 100 µM | GI50 [47]: > 100 µM | TGI [47]: > 100 µM
